Where two headings read alike, the source gives them in different places.
What was measured:
[1] = Intravenous pharmacokinetics of ETX1317; assay type: in vivo; conditions: male, dog, i.v. 1 mg/kg
Method: (§1) Intravenous pharmacokinetics of ETX1317 investigated in jugular vein cannulated male Sprague–Dawley rats (Charles River Laboratories, n = 3/route) at a dose of 10 mg/kg formulated in 0.9% saline. Oral pharmacokinetics of ETX0282 was evaluated at a 10 mg/kg equivalent dose of ETX1317 formulated in 25:75 PEG 400:WFI. The pH of each formulation was verified to fall within a range of 4–7 and were confirmed to be in solution prior to dosing. Potency was verified by LC/MS/MS. Dose volumes were 5 and 10 mL/kg for ETX1317(i.v.) and ETX0282(p.o.), respectively for rats. In both dog (male, 3/route) and monkey (male, 3/route) studies, i.v. and p.o. doses were formulated on 25:75 PEG 400:WFI (pH ∼5) and administered at a dose of ∼1 mg/kg. Dose volume was 1 mL/kg for both routes in dogs and monkeys with the i.v. dose infused over 15 min. For oral doses, gavage tubes were flushed with 10 mL after administration of the dose. i.v. doses were sterile-filtered through 0.22 μm PVDF membrane prior to administration into the cephalic vein.
Blood sampling (∼1 mL) for dogs and monkeys was carried out via venipuncture of the jugular vein at the following time points:
i.v.: pre-dose, 0.083, 0.25 (prior to end of infusion), 0.5, 1, 1.5, 2, 4, 6, 8, 12, and 24 h post-dose
Blood samples were centrifuged at 3200 rpm for 10 min at approximately 5 °C. Plasma samples (500 μL) were transferred to 96-well plate tubes (MatrixTech, 0.5 mL). An equal amount (500 μL) of SIGMAFAST protease inhibitor solution (1 tablet dissolved in 10 mL distilled water, Sigma-Aldrich Part No. S8820) was added as a preservative to the 96-well plate tubes resulting in a 1:1 dilution. Diluted plasma samples were stored at −80 ± 10 °C.
(§2) Urine collection was collected directly into Nalgene bottles placed under metabolism cages with frozen ice packs to chill urine over the collection interval. Urine was collected 0–12, and 12–24 h post-dose. Following collection of each urine sample, the total urine weight was recorded and 3 mL aliquots were retained for LC/MS/MS analysis.
(§3) Non-compartmental analysis of time vs concentration data for ETX1317, ETX0282, CPD, and CPDP was completed using WinNonlin 8.1 (Pharsite Corporation, Mountain View CA). The maximum concentration (Cmax) was the highest observed concentration; Tmax was the earliest time at which Cmax occurred; and the elimination half-life was estimated as ln 2/kel, where kel is the elimination rate constant derived from the slope of the log concentration versus time profile. The area under the concentration–time curve from 0 h to the last time point (AUC0-tlast) was calculated by linear trapezoidal approximation. Clearance (CL) was estimated as Dose/AUC0-tlast and the steady state volume of distribution (Vd,ss) was estimated as CL* MRT, where MRT = AUMC/AUC (MRT = mean residence time and AUMC = area under the moment curve). Oral bioavailability (F) was determined from ETX1317 concentrations and normalizing doses to free acid equivalence, where F = AUCp.o.*(dosei.v.)/AUCi.v.*(dosep.o.).

Plasma protein binding = assay type: in vitro ADME, dog
Method: Plasma protein binding was determined by rapid equilibrium dialysis. Plasma was freshly prepared from blood samples drawn in to EDTA (anticoagulant) containing tubes. Plasma was prepared using a table-top centrifuge and spun per instruction of the tube manufacturer and specifications (Beckton, Dickinson and Company, Franklin Lakes, NJ) and placed on ice prior to use.
Pooled plasma samples were centrifuged at 2000 rpm (approximately 1400g) for 15 min at 4 °C to remove debris. Approximately 90% of the clear supernatant fraction was transferred to a separate tube. Samples (500 μL) were then spiked with a 100× stock solution 100 μM, 0.5 mM, and 10 mM ETX1317 in DMSO respectively for 1, 5, and 100 μM final concentrations, transferred to the top of the filter chambers, and allowed to equilibrate for 15 min prior to centrifugation. The filtrate tubes were centrifuged at 14000g for 15 min at 4 °C. Next, 50 μL of the filtrate was precipitated with 300 μL of acetonitrile containing 250 ng/mL of carbutamide as the internal standard and the samples were analyzed by LC/MS/MS analysis.

[2] = Intravenous pharmacokinetics of ETX1317; assay type: in vivo, rat; conditions: i.v. 10 mg/kg
Method: as §1
Blood samples to be processed for plasma using K2EDTA as an anticoagulant were taken at 0.08, 0.17, 0.25, 0.5, 1, 2, 4, and 8 h (i.v.) and 0.25, 0.5, 1, 2, 4, 8, and 24 h (p.o.) post dose in rats. Blood samples collected into 0.5 mL BD microtainers containing 1.0 mg K2EDTA were centrifuged in a microfuge for 10 min, plasma pipetted to 96 well cryo tubes, and stored at −80 °C prior to analysis.
as §2, §3

[3] = male, Sprague-Dawley, rat, plasma, iv

CC1=C[C@@H](C(N)=O)N2C[C@@H]1N(O[C@H](F)C(=O)O)C2=O [ETX1317]
AUC ([1]; plasma): 2760 ± 340 ng·h/mL
Cmax ([1]; plasma): 2270 ± 490 ng/mL
half-life ([1]; plasma): 48 ± 6 min
clearance ([1]; plasma, read-out: CL): 5.7 ± 0.7 mL/min/kg
Vd ([1]; plasma, read-out: Vd,ss): 0.38 ± 0.05 L/kg
clearance ([1]; urine and plasma, read-out: renal CL): 1.1 ± 0.3 mL/min/kg
Proportion unbound (Plasma protein binding; 1 µM): 92%
Proportion unbound (Plasma protein binding; 5 µM): 100%
Proportion unbound (Plasma protein binding; 100 µM): 81%
CL ([2]; 10 mg/kg): 23.1 ± 1.1 mL/min/kg
clearance ([2]; male, Sprague-Dawley, rat, plasma, iv, 10 mg/kg, read-out: CL): 23 mL/min/kg
AUC [2, 3]: 7190 ± 340 ng·h/mL
Cmax [2, 3]: 17500 ± 2000 ng/mL
half-life [2, 3]: 24 ± 1.2 min
Vd ([2]; male, Sprague-Dawley, rat, plasma, iv, read-out: Vd,ss): 0.7 ± 0.01 L/kg
clearance ([2]; male, Sprague-Dawley, rat, urine and plasma, iv, 10 mg/kg, read-out: renal CL): 13.4 ± 0.3 mL/min/kg
